Experimental data: patent publication US20100063160A1, “POLYMORPHS OF O-DESMETHYL VENLAFAXINE SUCCINATE” (priority 2006, published 2010)

Experiments:
[1] = relative stability of ODV succinate polymorphic forms; type: physicochemical; conditions: compared with the other forms of ODV succinate
[2] = system: serotonin uptake; conditions: cited from earlier work
[3] = system: norepinephrine uptake; conditions: cited from earlier work
[4] = cited from earlier work
[5] = in vivo, po; cited from earlier work
[6] = cited from earlier work; remark: listed apart in the source
[7] = in vivo; cited from earlier work

Q: Which “stability of polymorphic form” value [1] does the source give for `CN(C)CC(c1ccc(O)cc1)C1(O)CCCCC1.O=C(O)CCC(=O)O` (centres unmarked) [Form II of ODV succinate, O-desmethyl venlafaxine (ODV) succinate monohydrate] here?
A: most stable form

Q: Which results are given for `CN(C)CC(c1ccc(O)cc1)C1(O)CCCCC1` (centres unmarked) [ODV, 1-[2-(dimethylamino)-1-(4-hydroxyphenyl)ethyl]cyclohexanol]?
A: serotonin uptake inhibition [2]: inhibit; norepinephrine uptake inhibition [3]: inhibit

Q: Which results are given for `CN(C)CC(c1ccc(O)cc1)C1(O)CCCCC1.O=C(O)CCC(=O)O` (centres unmarked) [ODV succinate, O-desmethyl venlafaxine (ODV) succinate]?
A: permeability [4]: high; incidence of nausea, vomiting, diarrhea, abdominal pain, headache, vasovagal malaise and/or trismus [5]: lower incidence; solubility [6]: high; absorption in the gastrointestinal tract [7]: well absorbed; bioavailability [7]: high
